Patent publication US20160331754A1, “THERAPIES FOR TREATING CANCERS” (GILEAD SCIENCES, INC., priority 2014, published 2016)
Several values for one entry are separate records, joined by “and”; a condition that tells them apart may be missing. Equal entries are not always repeated.

Tested on: WIL2-S
Experiment: ADCC LDH release assay, purified NK cells against WIL2-S target cells
Assay type: cell-based, human
Settings: for Percentage of maximum obinutuzumab-mediated ADCC: Obinutuzumab 10 μg/mL, E:T=10:1, 4 h; for Percentage of maximum ADCC, rituximab: rituximab 10 μg/mL, FcγRIIIa 158F/F
From the text: PI3K isoforms may play a role in immune effector cells and FcγR signaling. The effects of Compound B on the immune effector functions of obinutuzumab and rituximab in lymphoma cell lines were examined. To characterize the antibody-dependent cellular cytotoxicity (ADCC), PBMCs were isolated from healthy individuals with FcγRIIIa genotypes of 158F/F, 158F/V, or 158V/V (Leuko Paks from AllCells, Alameda, Calif.) using Ficoll density gradient centrifugation. NK cells were enriched using a negative-selection immunomagnetic enrichment kit ([…] Technologies, Vancouver, British Columbia, Canada). Enriched NK cells and target cells WIL2-S, S-DHL-4, or Z-138 were separately pre-incubated for 1 hour with or without Compound B (1/2 dilutions from about 1 mM to about 1 nM). In the last 20 minutes of the pre-incubation, target cells were opsonized with or without rituximab or obinutuzumab (at 10 μg/mL, the saturating concentration with maximal ADCC) at indicated effector-target ratios (E:T). Palivizumab was used as an isotype control. NK and target cells were combined and incubated for 4 hours at 37° C. in 5% CO2. To determine ADCC, […] dehydrogenase (LDH) was measured using a cytotoxicity detection kit (Roche Applied Science, Indianapolis, Ind.). In some assays, antigen-independent cellular cytotoxicity (AICC) which represented spontaneous release by NK cell killing of target cells without antibodies were used as control.
LDH release assays were conducted at 4 hours using WIL2-S line as target and purified NK cells (E:T=10:1). The results (n=9) were normalized as % of maximum ADCC.

CC[C@H](Nc1ncnc2[nH]cnc12)c1nc2cccc(F)c2c(=O)n1-c1ccccc1 [Compound B, (S)-2-(1-((9H-purin-6-yl)amino)propyl)-5-fluoro-3-phenylquinazolin-4(3H)-one]
Percentage of maximum obinutuzumab-mediated ADCC (Compound B 0.98 nM): 99% and 91% and 109% and 94% and 96% and 103% and 104% and 101% | Percentage of maximum obinutuzumab-mediated ADCC (Compound B 1.95 nM): 100% and 89% and 125% and 104% and 106% and 112% and 107% | Percentage of maximum obinutuzumab-mediated ADCC (Compound B 3.91 nM): 91% and 84% and 102% and 113% and 105% and 108% and 110% and 103% | Percentage of maximum obinutuzumab-mediated ADCC (Compound B 7.81 nM): 90% and 89% and 98% and 113% and 105% and 109% and 107% and 94% | Percentage of maximum ADCC, rituximab (Compound B 15.63 nM): 92% and 108% | Percentage of maximum obinutuzumab-mediated ADCC (Compound B 31.25 nM): 82% and 85% and 102% and 107% and 96% and 95% | Percentage of maximum ADCC, rituximab (Compound B 31.25 nM): 86% and 109% | Percentage of maximum obinutuzumab-mediated ADCC (Compound B 62.5 nM): 78% and 88% and 103% and 95% and 108% and 112% and 98% | Percentage of maximum obinutuzumab-mediated ADCC (Compound B 125 nM): 84% and 87% and 104% and 97% and 111% and 110% and 105% and 94% | Percentage of maximum obinutuzumab-mediated ADCC (Compound B 250 nM): 89% and 91% and 99% and 97% and 95% and 106% and 109% and 102% | Percentage of maximum obinutuzumab-mediated ADCC (Compound B 500 nM): 79% and 83% and 94% and 92% and 96% and 106% and 104% | Percentage of maximum ADCC, obinutuzumab (Compound B 1000 nM, obinutuzumab 10 μg/mL, FcγRIIIa 158V/V, n=2): 83% and 82% | inhibition at […] (Homo sapiens, 250 nM, FcγRIIIa 158V/V genotype, read-out: inhibition of obinutuzumab-mediated ADCC): < 10% | effect on obinutuzumab-mediated ADCC in FcγRIIIa 158F/F or 158F/V genotypes (n=2 per genotype, antibody 10 μg/mL): did not affect
